Laboratory results: patent US11708562B2, “Differentiation of human embryonic stem cells” (Janssen Biotech, Inc., priority 2006, dated 2023)

Test system: H9P83 cells on MATRIGEL and H9P44 cells on MEFs
Assay: Microarray analysis of gene expression after definitive endoderm formation (Table IV)
Type: cell-based, human
Settings: after 5 days of treatment
Procedure: Controls for each group included cells plated on […]-coated dishes and cultured in MEF-conditioned medium or cells plated on MEFs and cultured in ES medium.
Sample preparation, hybridization, and image analysis were performed according to the Affymetrix Human Genome U133 Plus 2.0 Array. Following normalization and a log transformation, data analysis was performed using OmniViz® software (MA) and […] (VizXLabs, WA). The variability within each treatment and among the different treatments was compared using the Pearson correlation coefficient. […] Significant differences in gene expression between the samples were evaluated using analysis of variance and an F-test with adjusted P-value (Benjamini and Hochberg correction) of ≤0.05. Only genes with a present call were included in the analysis.

[1] = H9P44 on MEFs-DE stage, undifferentiated H9P44 on MEFs 2.17
[2] = H9P44 on MEFs-DE stage, undifferentiated H9P44 on MEFs 2.18
[3] = H9P44 on MEFs-DE stage, undifferentiated H9P44 on MEFs 3.80
[4] = H9P83 on Matrigel-DE stage, undifferentiated H9P83 on Matrigel 1.38

Substance: Activin A: a member of the TGFβ superfamily; growth factor (R&D Systems) used to differentiate human embryonic stem cells
- expression of HCN1 (BM682352, cDNA FLJ37204 fis, clone BRALZ2006976) (H9P44 on MEFs-DE stage): −3.88
- expression of INDO (M34455, indoleamine 2,3-dioxygenase (IDO)) (H9P44 on MEFs-DE stage): 1.69
- expression of JAKMIP2 (BU729850, hypothetical protein LOC153469) (H9P44 on MEFs-DE stage): −1.56
- expression of LOC157627 (AL832535, cDNA DKFZp547J1816) (H9P44 on MEFs-DE stage): −1.50
- expression of PCSK1 (NM_000439, proprotein convertase subtilisinkexin type 1) (H9P44 on MEFs-DE stage): −3.19
- expression of SMOC2 (AB014737, mRNA for SMAP-2b) (H9P44 on MEFs-DE stage): −2.27
- SCNN1G (AI985987) gene expression (H9P44 on MEFs-DE stage, undifferentiated H9P44 on MEFs 0.12): −2.70
- TMEM16A (NM_018043) gene expression (H9P44 on MEFs-DE stage, undifferentiated H9P44 on MEFs 0.25): −3.93
- LOC646326 (BE972639) gene expression (H9P44 on MEFs-DE stage, undifferentiated H9P44 on MEFs 0.33): −2.24
- COL14A1 (AI693516) gene expression (H9P44 on MEFs-DE stage, undifferentiated H9P44 on MEFs 0.96): −1.81
- AK5 (BG169832) gene expression (H9P44 on MEFs-DE stage, undifferentiated H9P44 on MEFs 1.03): −1.94
- C9orf39 (AA280904) gene expression (H9P44 on MEFs-DE stage, undifferentiated H9P44 on MEFs 1.13): −0.78
- LOC200230 (AI056877) gene expression (H9P44 on MEFs-DE stage, undifferentiated H9P44 on MEFs 1.15): −1.35
- CTNND2 (U96136) gene expression (H9P44 on MEFs-DE stage, undifferentiated H9P44 on MEFs 1.18): −1.17
- SDK2 (N23651) gene expression (H9P44 on MEFs-DE stage, undifferentiated H9P44 on MEFs 1.27): −2.07
- SAMHD1 (AF147427) gene expression (H9P44 on MEFs-DE stage, undifferentiated H9P44 on MEFs 1.35): −2.30
- PAH (NM_000277) gene expression (H9P44 on MEFs-DE stage, undifferentiated H9P44 on MEFs 1.46): −0.42
- AL120674 (ESTs) gene expression (H9P44 on MEFs-DE stage, undifferentiated H9P44 on MEFs 1.55): −2.20
- AI742043 (ESTs) gene expression (H9P44 on MEFs-DE stage, undifferentiated H9P44 on MEFs 1.77): −1.45
- DAZL (NM_001351) gene expression (H9P44 on MEFs-DE stage, undifferentiated H9P44 on MEFs 1.93): −0.73
- PSMB9 (NM_002800) gene expression (H9P44 on MEFs-DE stage, undifferentiated H9P44 on MEFs 2.05): −1.43
- BF698797 (ESTs) gene expression (H9P44 on MEFs-DE stage, undifferentiated H9P44 on MEFs 2.07): −0.40
- AF107846 (neuroendocrine-specific Golgi protein p55 (XLalphas) gene) expression (H9P44 on MEFs-DE stage, undifferentiated H9P44 on MEFs 2.12): −2.56
- CHST8 (NM_022467) gene expression [1]: 0.48
- NPTX1 (NM_002522) gene expression [1]: −1.19
- FGF19 (AF110400) gene expression [2]: −0.91
- PCDH8 (NM_002590) gene expression [2]: 0.12
- LOC157627 (AF052108) gene expression (H9P44 on MEFs-DE stage, undifferentiated H9P44 on MEFs 2.26): −1.33
- C10orf96 (BC044830) gene expression (H9P44 on MEFs-DE stage, undifferentiated H9P44 on MEFs 2.28): −1.39
- CR2 (NM_001877) gene expression (H9P44 on MEFs-DE stage, undifferentiated H9P44 on MEFs 2.35): −1.44
- SAMHD1 (NM_015474) gene expression (H9P44 on MEFs-DE stage, undifferentiated H9P44 on MEFs 2.89): 0.29
- PSMB8 (U17496) gene expression (H9P44 on MEFs-DE stage, undifferentiated H9P44 on MEFs 3.30): 0.09
- HHIP (AK098525) gene expression (H9P44 on MEFs-DE stage, undifferentiated H9P44 on MEFs 3.32): −0.11
- KCNG3 (NM_133329) gene expression (H9P44 on MEFs-DE stage, undifferentiated H9P44 on MEFs 3.67): 0.26
- STXBP6 (N21096) gene expression (H9P44 on MEFs-DE stage, undifferentiated H9P44 on MEFs 3.69): 1.14
- NMI (NM_004688) gene expression [3]: 1.13
- RMST (BE468066) gene expression [3]: 1.63
- TOX (AI961231) gene expression (H9P44 on MEFs-DE stage, undifferentiated H9P44 on MEFs 4.00): 1.13
- C20orf118 (BF437747) gene expression (H9P44 on MEFs-DE stage, undifferentiated H9P44 on MEFs 4.57): 1.75
- C20orf118 (AV715309) gene expression (H9P44 on MEFs-DE stage, undifferentiated H9P44 on MEFs 4.76): 1.48
- FEZ1 (NM_005103) gene expression (H9P44 on MEFs-DE stage, undifferentiated H9P44 on MEFs 4.98): 2.20
- SCG5 (NM_003020) gene expression (H9P44 on MEFs-DE stage, undifferentiated H9P44 on MEFs 5.01): 3.11
- LECT1 (NM_007015) gene expression (H9P44 on MEFs-DE stage, undifferentiated H9P44 on MEFs 5.36): 1.83
- IFIH1 (NM_022168) gene expression (H9P44 on MEFs-DE stage, undifferentiated H9P44 on MEFs −0.10): −2.15
- ATP5S (BE968806) gene expression (H9P44 on MEFs-DE stage, undifferentiated H9P44 on MEFs −0.34): −4.73
- PAK7 (AB040812) gene expression (H9P44 on MEFs-DE stage, undifferentiated H9P44 on MEFs −0.49): −4.18
- expression of HCN1 (BM682352, cDNA FLJ37204 fis, clone BRALZ2006976) (H9P83 on Matrigel-DE stage): −4.38
- expression of INDO (M34455, indoleamine 2,3-dioxygenase (IDO)) (H9P83 on Matrigel-DE stage): 1.58
- expression of JAKMIP2 (BU729850, hypothetical protein LOC153469) (H9P83 on Matrigel-DE stage): 0.43
- expression of LOC157627 (AL832535, cDNA DKFZp547J1816) (H9P83 on Matrigel-DE stage): −0.04
- expression of PCSK1 (NM_000439, proprotein convertase subtilisinkexin type 1) (H9P83 on Matrigel-DE stage): −2.68
- expression of SMOC2 (AB014737, mRNA for SMAP-2b) (H9P83 on Matrigel-DE stage): −2.04
- LOC646326 (BE972639) gene expression (H9P83 on Matrigel-DE stage, undifferentiated H9P83 on Matrigel 0.00): −2.71
- LOC200230 (AI056877) gene expression (H9P83 on Matrigel-DE stage, undifferentiated H9P83 on Matrigel 0.11): −2.37
- C9orf39 (AA280904) gene expression (H9P83 on Matrigel-DE stage, undifferentiated H9P83 on Matrigel 0.23): −1.58
- COL14A1 (AI693516) gene expression (H9P83 on Matrigel-DE stage, undifferentiated H9P83 on Matrigel 0.39): −1.63
- AF107846 (neuroendocrine-specific Golgi protein p55 (XLalphas) gene) expression (H9P83 on Matrigel-DE stage, undifferentiated H9P83 on Matrigel 0.44): −0.25
- AK5 (BG169832) gene expression (H9P83 on Matrigel-DE stage, undifferentiated H9P83 on Matrigel 0.62): −2.79
- PAH (NM_000277) gene expression (H9P83 on Matrigel-DE stage, undifferentiated H9P83 on Matrigel 0.65): −1.08
- CTNND2 (U96136) gene expression (H9P83 on Matrigel-DE stage, undifferentiated H9P83 on Matrigel 0.78): −1.33
- BF698797 (ESTs) gene expression (H9P83 on Matrigel-DE stage, undifferentiated H9P83 on Matrigel 0.93): −0.74
- AI742043 (ESTs) gene expression (H9P83 on Matrigel-DE stage, undifferentiated H9P83 on Matrigel 0.94): −0.76
- AL120674 (ESTs) gene expression (H9P83 on Matrigel-DE stage, undifferentiated H9P83 on Matrigel 1.00): −1.35
- SAMHD1 (AF147427) gene expression (H9P83 on Matrigel-DE stage, undifferentiated H9P83 on Matrigel 1.33): −0.99
- C10orf96 (BC044830) gene expression [4]: −0.32
- PSMB9 (NM_002800) gene expression [4]: 0.27
- LOC157627 (AF052108) gene expression (H9P83 on Matrigel-DE stage, undifferentiated H9P83 on Matrigel 1.49): 0.22
- CR2 (NM_001877) gene expression (H9P83 on Matrigel-DE stage, undifferentiated H9P83 on Matrigel 1.50): −0.43
- DAZL (NM_001351) gene expression (H9P83 on Matrigel-DE stage, undifferentiated H9P83 on Matrigel 1.69): −0.81
- HHIP (AK098525) gene expression (H9P83 on Matrigel-DE stage, undifferentiated H9P83 on Matrigel 1.76): −0.57
- CHST8 (NM_022467) gene expression (H9P83 on Matrigel-DE stage, undifferentiated H9P83 on Matrigel 2.11): −0.51
- FGF19 (AF110400) gene expression (H9P83 on Matrigel-DE stage, undifferentiated H9P83 on Matrigel 2.12): −0.08
- KCNG3 (NM_133329) gene expression (H9P83 on Matrigel-DE stage, undifferentiated H9P83 on Matrigel 2.18): 0.74
- NPTX1 (NM_002522) gene expression (H9P83 on Matrigel-DE stage, undifferentiated H9P83 on Matrigel 2.35): −0.48
- STXBP6 (N21096) gene expression (H9P83 on Matrigel-DE stage, undifferentiated H9P83 on Matrigel 2.42): 0.99
- SAMHD1 (NM_015474) gene expression (H9P83 on Matrigel-DE stage, undifferentiated H9P83 on Matrigel 2.63): 0.57
- FEZ1 (NM_005103) gene expression (H9P83 on Matrigel-DE stage, undifferentiated H9P83 on Matrigel 2.80): 2.08
- RMST (BE468066) gene expression (H9P83 on Matrigel-DE stage, undifferentiated H9P83 on Matrigel 3.26): 1.49
- TOX (AI961231) gene expression (H9P83 on Matrigel-DE stage, undifferentiated H9P83 on Matrigel 3.28): 1.23
- PSMB8 (U17496) gene expression (H9P83 on Matrigel-DE stage, undifferentiated H9P83 on Matrigel 3.43): 0.46
- NMI (NM_004688) gene expression (H9P83 on Matrigel-DE stage, undifferentiated H9P83 on Matrigel 3.54): 0.96
